According to patent publication US11178871B2, “Herbicidal pyrimidine compounds” (BASF SE, priority 2016, dated 2021):

Experiments:
Format in all cases: in vivo
Echinocloa crus-galli [1] = test: greenhouse test, post-emergence treatment, ECHCG; conditions: post-emergence
How it was run: (§1)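 Herbicidal effect is rated 0–100, where 100 denotes total destruction of aerial parts and 0 denotes unaffected growth. Treatment occurs once plants reach 3–15 cm in humus-containing loamy sand, with compound applied in water; the trial runs 2–4 weeks at 10–25 °C or 20–35 °C.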

Echinocloa crus-galli [2] = test: greenhouse test, pre-emergence treatment, ECHCG
How it was run: (§2)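 Herbicidal effect rated on a 0-100 scale, where 0 is normal growth and 100 is no emergence or destroyed aerial parts, 2 to 4 weeks after soil application at sowing.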

Apera spica-venti [3] = test: greenhouse test, post-emergence treatment, APESV; conditions: post-emergence, 2000 g/ha
Source text: (§3) The culture containers used were plastic flowerpots containing loamy sand with approximately 3.0% of humus as the substrate. The seeds of the test plants were sown separately for each species.
(§4) For the post-emergence treatment, the test plants were first grown to a height of 3 to 15 cm, depending on the plant habit, and only then treated with the active ingredients which had been suspended or emulsified in water. For this purpose, the test plants were either sown directly and grown in the same containers, or they were first grown separately as seedlings and transplanted into the test containers a few days prior to treatment.
(§5) Depending on the species, the plants were kept at 10-25° C. or 20-35° C., respectively.
(§6) The test period extended over 2 to 4 weeks. During this time, the plants were tended, and their response to the individual treatments was evaluated.
(§7) Evaluation was carried out using a scale from 0 to 100. 100 means no emergence of the plants, or complete destruction of at least the aerial moieties, and 0 means no damage, or normal course of growth. A good herbicidal activity is given at values of at least 70 and a very good herbicidal activity is given at values of at least 85.
(§8) The plants used in the greenhouse experiments were of the following species: […]

Alopecurus myosuroides [4] = test: greenhouse test, pre-emergence treatment, ALOMY; conditions: 2000 g/ha
Source text: as §3
(§9) For the pre-emergence treatment, the active ingredients, which had been suspended or emulsified in water, were applied directly after sowing by means of finely distributing nozzles. The containers were irrigated gently to promote germination and growth and subsequently covered with transparent plastic hoods until the plants had rooted. This cover caused uniform germination of the test plants, unless this had been impaired by the active ingredients.
as §5, §6, §7, §8

Poa annua [5] = test: greenhouse test, pre-emergence treatment, POAAN
How it was run: as §2

Apera spica-venti [6] = test: greenhouse test, pre-emergence treatment, APESV
How it was run: as §2

Agrostis stolonifera = test: greenhouse test, post-emergence treatment, AGSST
Source text: as §3, §4, §5, §6, §7, §8

Abutilon theophrasti [7] = test: greenhouse test, post-emergence treatment, ABUTH; conditions: 2000 g/ha
How it was run: as §1

Lolium multiflorum = test: greenhouse test, post-emergence treatment, LOLMU
Source text: as §3, §4, §5, §6, §7, §8

Avena fatua = test: greenhouse test, post-emergence treatment, AVEFA
How it was run: as §1

Alopecurus myosuroides [8] = test: greenhouse test, post-emergence treatment, ALOMY; conditions: post-emergence
How it was run: as §1

Matricaria inodora = test: greenhouse test, pre-emergence treatment, MATIN; conditions: 2000 g/ha
Source text: as §3, §9, §5, §6, §7, §8

Poa annua [9] = test: greenhouse test, post-emergence treatment, POAAN
Source text: as §3, §4, §5, §6, §7, §8

Polygonum convolvulus = test: greenhouse test, post-emergence treatment, POLCO; conditions: 500 g/ha
Source text: as §3, §4, §5, §6, §7, §8

Amaranthus retroflexus = test: greenhouse test, post-emergence treatment, AMARE
How it was run: as §1

Setaria viridis = test: greenhouse test, pre-emergence treatment, SETVI; conditions: 2000 g/ha
Source text: as §3, §9, §5, §6, §7, §8

Chenopodium album = test: greenhouse test, post-emergence treatment, CHEAL; conditions: 250 g/ha
Source text: as §3, §4, §5, §6, §7, §8

Abutilon theophrasti [10] = test: greenhouse test, pre-emergence treatment, ABUTH; conditions: 2000 g/ha
Source text: as §3, §9, §5, §6, §7, §8

Question: How did the herbicidal activity (Echinocloa crus-galli [1]; 2000 g/ha) turn out when `CC(O)Cc1nc(C2CC2)ncc1-c1ccccc1Cl` (stereo not drawn) [Ex. 105] was run?
Answer: very good (a very good herbicidal activity is given at values of at least 85)

Question: What about the herbicidal activity (Echinocloa crus-galli [2]; 2000 g/ha) of the same molecule?
Answer: very good (a very good herbicidal activity is given at values of at least 85)

Question: What about the herbicidal activity (Apera spica-venti [3]) of the same molecule?
Answer: very good (a very good herbicidal activity is given at values of at least 85)

Question: And the herbicidal activity (Alopecurus myosuroides [4])?
Answer: very good (a very good herbicidal activity is given at values of at least 85)

Question: What does the source list for `C=C(C(=O)OC)c1nc(C2CC2)ncc1-c1ccccc1Cl` [Ex. 221]?
Answer: herbicidal activity (Echinocloa crus-galli [1]; 2000 g/ha): very good (a very good herbicidal activity is given at values of at least 85); herbicidal activity (Echinocloa crus-galli [2]; 2000 g/ha): very good (a very good herbicidal activity is given at values of at least 85); herbicidal activity (Poa annua [5]; 2000 g/ha): very good (a very good herbicidal activity is given at values of at least 85); herbicidal activity (Apera spica-venti [6]; 2000 g/ha): very good (a very good herbicidal activity is given at values of at least 85); herbicidal activity (Agrostis stolonifera; 2000 g/ha): very good (a very good herbicidal activity is given at values of at least 85); herbicidal activity (Abutilon theophrasti [7]): very good (a very good herbicidal activity is given at values of at least 85)

Question: Which herbicidal activity (Lolium multiflorum; 250 g/ha) does the source give for `OCc1nc(C2CC2)ncc1-c1cc(F)ccc1Cl` [Ex. 14] here?
Answer: good (A good herbicidal activity is given at values of at least 70)

Question: What about the herbicidal activity (Apera spica-venti [6]; 250 g/ha) of the same molecule?
Answer: very good (a very good herbicidal activity is given at values of at least 85)

Question: For `Clc1ccccc1-c1cnc(C2CC2)nc1-c1cnco1` [Ex. 260], which herbicidal activity (Echinocloa crus-galli [1]; 2000 g/ha) is on record?
Answer: good (A good herbicidal activity is given at values of at least 70)

Question: And the herbicidal activity (Echinocloa crus-galli [2]; 2000 g/ha)?
Answer: very good (a very good herbicidal activity is given at values of at least 85)

Question: And the herbicidal activity (Avena fatua; 2000 g/ha)?
Answer: good (A good herbicidal activity is given at values of at least 70)

Question: And the herbicidal activity (Alopecurus myosuroides [8]; 2000 g/ha)?
Answer: very good (a very good herbicidal activity is given at values of at least 85)

Question: And the herbicidal activity (Matricaria inodora)?
Answer: very good (a very good herbicidal activity is given at values of at least 85)

Question: What about the herbicidal activity (Apera spica-venti [6]; 2000 g/ha) of the same molecule?
Answer: good (A good herbicidal activity is given at values of at least 70)

Question: With `Cc1ocnc1-c1nc(C2CC2)ncc1-c1ccccc1Cl` [Ex. 267] as the molecule, how does the herbicidal activity (Echinocloa crus-galli [1]; 2000 g/ha) read?
Answer: very good (a very good herbicidal activity is given at values of at least 85)

Question: What about the herbicidal activity (Echinocloa crus-galli [2]; 2000 g/ha) of the same molecule?
Answer: very good (a very good herbicidal activity is given at values of at least 85)

Question: What about the herbicidal activity (Poa annua [9]; 2000 g/ha) of the same molecule?
Answer: very good (a very good herbicidal activity is given at values of at least 85)

Question: What about the herbicidal activity (Poa annua [5]; 2000 g/ha) of the same molecule?
Answer: very good (a very good herbicidal activity is given at values of at least 85)

Question: And the herbicidal activity (Abutilon theophrasti [7])?
Answer: very good (a very good herbicidal activity is given at values of at least 85)

Question: With `Cc1ncc(-c2nc(C3CC3)ncc2-c2ccccc2Cl)o1` [Ex. 244] as the molecule, how does the herbicidal activity (Echinocloa crus-galli [2]; 500 g/ha) read?
Answer: very good (a very good herbicidal activity is given at values of at least 85)

Question: And the herbicidal activity (Poa annua [9]; 500 g/ha)?
Answer: good (A good herbicidal activity is given at values of at least 70)

Question: And the herbicidal activity (Poa annua [5]; 500 g/ha)?
Answer: very good (a very good herbicidal activity is given at values of at least 85)

Question: And the herbicidal activity (Polygonum convolvulus)?
Answer: good (A good herbicidal activity is given at values of at least 70)

Question: And the herbicidal activity (Alopecurus myosuroides [8]; 500 g/ha)?
Answer: good (A good herbicidal activity is given at values of at least 70)

Question: And the herbicidal activity (Apera spica-venti [6]; 500 g/ha)?
Answer: very good (a very good herbicidal activity is given at values of at least 85)

Question: How did the herbicidal activity (Amaranthus retroflexus; 2000 g/ha) turn out when `Brc1ccccc1-c1cnc(C2CC2)nc1C1CC1` [Ex. 39] was run?
Answer: very good (a very good herbicidal activity is given at values of at least 85)

Question: And the herbicidal activity (Setaria viridis)?
Answer: very good (a very good herbicidal activity is given at values of at least 85)

Question: What about the herbicidal activity (Abutilon theophrasti [7]) of the same molecule?
Answer: very good (a very good herbicidal activity is given at values of at least 85)

Question: Which herbicidal activity (Amaranthus retroflexus; 500 g/ha) does the source give for `OC(c1cccs1)C(O)c1nc(C2CC2)ncc1-c1ccccc1Cl` (stereo not drawn) [Ex. 247] here?
Answer: very good (a very good herbicidal activity is given at values of at least 85)

Question: And the herbicidal activity (Echinocloa crus-galli [2]; 500 g/ha)?
Answer: very good (a very good herbicidal activity is given at values of at least 85)

Question: What about the herbicidal activity (Poa annua [5]; 500 g/ha) of the same molecule?
Answer: very good (a very good herbicidal activity is given at values of at least 85)

Question: And the herbicidal activity (Alopecurus myosuroides [8]; 500 g/ha)?
Answer: very good (a very good herbicidal activity is given at values of at least 85)

Question: What about the herbicidal activity (Apera spica-venti [6]; 500 g/ha) of the same molecule?
Answer: very good (a very good herbicidal activity is given at values of at least 85)

Question: What about the herbicidal activity (Agrostis stolonifera; 500 g/ha) of the same molecule?
Answer: very good (a very good herbicidal activity is given at values of at least 85)

Question: For `Cc1nc(C)c(-c2nc(C3CC3)ncc2-c2ccccc2Br)o1` [Ex. 265], which herbicidal activity (Amaranthus retroflexus; 250 g/ha) is on record?
Answer: very good (a very good herbicidal activity is given at values of at least 85)

Question: And the herbicidal activity (Alopecurus myosuroides [8]; 250 g/ha)?
Answer: good (A good herbicidal activity is given at values of at least 70)

Question: What about the herbicidal activity (Chenopodium album) of the same molecule?
Answer: good (A good herbicidal activity is given at values of at least 70)

Question: `Clc1ccccc1-c1cnc(C2CC2)nc1-c1nc2ccccc2[nH]1` [Ex. 297] was tested. Which herbicidal activity (Echinocloa crus-galli [1]; 2000 g/ha) did it give?
Answer: very good (a very good herbicidal activity is given at values of at least 85)

Question: What about the herbicidal activity (Echinocloa crus-galli [2]; 2000 g/ha) of the same molecule?
Answer: good (A good herbicidal activity is given at values of at least 70)

Question: And the herbicidal activity (Avena fatua; 2000 g/ha)?
Answer: very good (a very good herbicidal activity is given at values of at least 85)

Question: What about the herbicidal activity (Abutilon theophrasti [10]) of the same molecule?
Answer: good (A good herbicidal activity is given at values of at least 70)

Question: What about the herbicidal activity (Alopecurus myosuroides [8]; 2000 g/ha) of the same molecule?
Answer: very good (a very good herbicidal activity is given at values of at least 85)

Question: What about the herbicidal activity (Apera spica-venti [6]; 2000 g/ha) of the same molecule?
Answer: very good (a very good herbicidal activity is given at values of at least 85)

Question: Which herbicidal activity (Echinocloa crus-galli [1]; 500 g/ha) does the source give for `Cc1ccc(-c2nc(C3CC3)ncc2-c2ccccc2Br)o1` [Ex. 121] here?
Answer: very good (a very good herbicidal activity is given at values of at least 85)

Question: What about the herbicidal activity (Lolium multiflorum; 500 g/ha) of the same molecule?
Answer: very good (a very good herbicidal activity is given at values of at least 85)

Question: And the herbicidal activity (Polygonum convolvulus)?
Answer: very good (a very good herbicidal activity is given at values of at least 85)

Question: What about the herbicidal activity (Alopecurus myosuroides [8]; 500 g/ha) of the same molecule?
Answer: very good (a very good herbicidal activity is given at values of at least 85)

Question: With `Cc1nc(C)c(-c2nc(C3CC3)ncc2-c2cc(C(F)F)ccc2Cl)o1` [Ex. 291] as the molecule, how does the herbicidal activity (Echinocloa crus-galli [2]; 500 g/ha) read?
Answer: very good (a very good herbicidal activity is given at values of at least 85)

Question: What about the herbicidal activity (Avena fatua; 500 g/ha) of the same molecule?
Answer: good (A good herbicidal activity is given at values of at least 70)

Question: And the herbicidal activity (Lolium multiflorum; 500 g/ha)?
Answer: good (A good herbicidal activity is given at values of at least 70)

Question: And the herbicidal activity (Poa annua [5]; 500 g/ha)?
Answer: very good (a very good herbicidal activity is given at values of at least 85)

Question: What about the herbicidal activity (Alopecurus myosuroides [8]; 500 g/ha) of the same molecule?
Answer: good (A good herbicidal activity is given at values of at least 70)

Question: And the herbicidal activity (Apera spica-venti [6]; 500 g/ha)?
Answer: very good (a very good herbicidal activity is given at values of at least 85)
